The nature of data set [1]: Pharmacokinetics in male Han Wistar rats, intravenous and oral. The class given is in vivo. Particulars: male Han Wistar rat. As to the method: The pharmacokinetics of compounds E7, E17 and E18, were studied in male Han Wistar rats. The rats were treated intravenously and orally (n=3 for each dose route) with compounds formulated as solutions. The rats were fitted with a jugular cannula for serial sampling. A full profile was acquired from each rat. Plasma extracts were quantitatively analyzed using a specific and sensitive LC-MS/MS bioanalytical method. Inter-individual variations between the three rats in each group were limited (CV for pharmacokinetic parameters was below 50%).

In another data set the target is human EP4 receptor (Homo sapiens (Human), UniProt P35408). Nature of the data set: [3H]-Prostaglandin E2 membrane binding assay toward hEP4 receptors. Particulars: [3H]-PGE2 1 nM, membranes of human EP4/HEK293 transfectant; read-out: Binding pKi (converted). As to the method:
Human embryonic kidney cells (HEK-293) were stably transfected with expression vector for human EP4 receptor in according to the method described in FuGENE®6 Transfection Reagent's manual (Roche Applied Science®). […] Incubation was conducted in a polypropylene 96 multiwell for 90 min (EP4) or 60 min (EP2) at room temperature prior to separation of the bound and free radioligand by vacuum manifold rapid filtration on glass fiber filters (Unifilter GFB96, PerkinElmer Inc) pre-soaked in 0.3% polyethyleneimine.

One may read the t½ as the time in which the quantity being followed falls by half. Read a low t½ as rapid decline. As a reminder, the Cmax is the peak of the concentration-time curve. A word on the Tmax: it is the time at which the peak concentration occurs.

human EP4 receptor, sequence (P35408 whole entry): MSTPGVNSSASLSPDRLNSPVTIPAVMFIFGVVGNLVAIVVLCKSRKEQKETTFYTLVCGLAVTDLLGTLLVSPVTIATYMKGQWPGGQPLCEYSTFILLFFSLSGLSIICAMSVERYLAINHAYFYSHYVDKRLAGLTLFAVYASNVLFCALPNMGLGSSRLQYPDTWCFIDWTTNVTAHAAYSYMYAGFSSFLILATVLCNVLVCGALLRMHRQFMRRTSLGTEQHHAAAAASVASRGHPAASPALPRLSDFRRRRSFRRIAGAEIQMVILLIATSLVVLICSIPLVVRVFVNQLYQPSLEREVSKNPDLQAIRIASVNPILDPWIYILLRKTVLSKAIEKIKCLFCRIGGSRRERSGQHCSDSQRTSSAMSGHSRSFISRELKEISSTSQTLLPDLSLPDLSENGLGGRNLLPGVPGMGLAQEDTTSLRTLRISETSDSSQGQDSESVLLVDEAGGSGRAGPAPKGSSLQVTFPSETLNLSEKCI

With `O=C(O)c1ccc(C2(NC(=O)C3CC4(CCN3Cc3ccc(C(F)(F)F)cc3)CC4)CC2)cc1` (single isomer, unassigned) [Example E7, 4-(1-(6-(4-(trifluoromethyl)benzyl)-6-azaspiro[2.5]octane-5-carboxamido)cyclopropyl)benzoic acid], in data set [1] (iv, 5 mg/kg), the “AUC 0-t” value is 29200 ng·h/mL, the AUC inf was 31800 ng·h/mL, the CLp turned out to be 43 mL/h and the Tlast is recorded as 24 h. In data set [1] (iv, 5 mg/kg), this compound showed a Vss of 395 mL and a t½ of 7.4 h. Further, in data set [1] (po, 5 mg/kg), the “AUC 0-t” value came out at 22900 ng·h/mL, the AUC inf was 24900 ng·h/mL, the Cmax is 5330 ng/mL and the F was 78%. Also, in data set [1] (po, 5 mg/kg), the Tlast amounted to 24 h, the Tmax was 0.5 h and the t½ is given as 6.7 h.

Take `O=C(O)c1ccc(C2(NC(=O)C3CC(F)(F)CCN3Cc3ccc(C(F)(F)F)cc3)CC2)cc1` (single isomer, unassigned) [Example E18, 4-(1-(4,4-difluoro-1-(4-(trifluoromethyl)benzyl)piperidine-2-carboxamido)cyclopropyl)benzoic acid]: the Tlast in data set [1] (iv, 1 mg/kg) is reported as 24 h; in data set [1] (po, 1 mg/kg), 24 h. In data set [1] (po, 1 mg/kg), this compound registered an F of 93%.

For the compound `O=C(O)c1ccc(C2(NC(=O)[C@H]3CCCCN3Cc3ccc(C(F)(F)F)cc3)CC2)cc1` [Example E4, lithium (R)-4-(1-(1-(4-(trifluoromethyl)benzyl)piperidine-2-carboxamido)cyclopropyl)benzoate], the Ki at human EP4 receptor is 39.8 nM.

In data set [1] (po, 1 mg/kg), `O=C(O)c1ccc(C2(NC(=O)[C@H]3CC(F)(F)CCN3Cc3ccc(C(F)(F)F)cc3)CC2)cc1` [Example E17, (R)-4-(1-(4,4-difluoro-1-(4-(trifluoromethyl)benzyl)piperidine-2-carboxamido)cyclopropyl)benzoic acid] returned an F of 85% and a Tlast of 24 h.

With `C[C@H](NC(=O)[C@H]1CCCN1Cc1ccc(C(F)(F)F)cc1)c1ccc(C(=O)O)cc1` [Example E27, lithium 4-((S)-1-((R)-1-(4-(trifluoromethyl)benzyl)pyrrolidine-2-carboxamido)ethyl)benzoate], on human EP4 receptor, the Ki was 50.1 nM.

(Values after US9181279B2, “Cyclic amine derivatives as EP4 receptor antagonists” (ROTTAPHARM BIOTECH S.R.L., priority 2011, dated 2015).)
